In ChEMBL document CHEMBL1909046, “DrugMatrix in vitro pharmacology data”:

Assays:
[1] = target: Receptor tyrosine-protein kinase erbB-2 (Homo sapiens, UniProt P04626); experiment: biochemical; assay type: cell-based, Insect cells; settings: insect cells;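 note: inhibition of HER2 kinase enzyme activity, measured with Poly(Glu:Tyr) as the phosphorylation substrate; in other assays of this panel Not Active means under 50% inhibition at 10 µM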
[2] = DRUGMATRIX: GABAA, Flunitrazepam, Central radioligand binding (ligand: [3H] Flunitrazepam); assay type: cell membranes, Rattus norvegicus, Wistar, Brain, Membrane; settings: Not Active = under 50% inhibition at 10 µM
[3] = target: Epidermal growth factor receptor (Homo sapiens, UniProt P00533); experiment: DRUGMATRIX: Protein Tyrosine Kinase, EGF Receptor enzyme inhibition (substrate: Poly(Glu:Tyr)); assay type: cell-based, Insect cells; settings: insect cells; Not Active = under 50% inhibition at 10 µM
[4] = target: Insulin receptor (Rattus norvegicus, UniProt P15127); assay type: cell membranes, Wistar, Liver, Membrane; note: in other assays of this panel Not Active means under 50% inhibition at 10 µM
[5] = target: Platelet-activating factor receptor (Homo sapiens, UniProt P25105); assay type: tissue-based; note: in other assays of this panel Not Active means under 50% inhibition at 10 µM
[6] = target: T1, Nitric oxide synthase, inducible (Mus musculus, UniProt P29477); design: species or system Escherichia coli;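 note: inhibition of iNOS enzyme activity measured with L-arginine as substrate; in other assays of this panel Not Active means under 50% inhibition at 10 µM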
T1 sequence (P29477 whole entry): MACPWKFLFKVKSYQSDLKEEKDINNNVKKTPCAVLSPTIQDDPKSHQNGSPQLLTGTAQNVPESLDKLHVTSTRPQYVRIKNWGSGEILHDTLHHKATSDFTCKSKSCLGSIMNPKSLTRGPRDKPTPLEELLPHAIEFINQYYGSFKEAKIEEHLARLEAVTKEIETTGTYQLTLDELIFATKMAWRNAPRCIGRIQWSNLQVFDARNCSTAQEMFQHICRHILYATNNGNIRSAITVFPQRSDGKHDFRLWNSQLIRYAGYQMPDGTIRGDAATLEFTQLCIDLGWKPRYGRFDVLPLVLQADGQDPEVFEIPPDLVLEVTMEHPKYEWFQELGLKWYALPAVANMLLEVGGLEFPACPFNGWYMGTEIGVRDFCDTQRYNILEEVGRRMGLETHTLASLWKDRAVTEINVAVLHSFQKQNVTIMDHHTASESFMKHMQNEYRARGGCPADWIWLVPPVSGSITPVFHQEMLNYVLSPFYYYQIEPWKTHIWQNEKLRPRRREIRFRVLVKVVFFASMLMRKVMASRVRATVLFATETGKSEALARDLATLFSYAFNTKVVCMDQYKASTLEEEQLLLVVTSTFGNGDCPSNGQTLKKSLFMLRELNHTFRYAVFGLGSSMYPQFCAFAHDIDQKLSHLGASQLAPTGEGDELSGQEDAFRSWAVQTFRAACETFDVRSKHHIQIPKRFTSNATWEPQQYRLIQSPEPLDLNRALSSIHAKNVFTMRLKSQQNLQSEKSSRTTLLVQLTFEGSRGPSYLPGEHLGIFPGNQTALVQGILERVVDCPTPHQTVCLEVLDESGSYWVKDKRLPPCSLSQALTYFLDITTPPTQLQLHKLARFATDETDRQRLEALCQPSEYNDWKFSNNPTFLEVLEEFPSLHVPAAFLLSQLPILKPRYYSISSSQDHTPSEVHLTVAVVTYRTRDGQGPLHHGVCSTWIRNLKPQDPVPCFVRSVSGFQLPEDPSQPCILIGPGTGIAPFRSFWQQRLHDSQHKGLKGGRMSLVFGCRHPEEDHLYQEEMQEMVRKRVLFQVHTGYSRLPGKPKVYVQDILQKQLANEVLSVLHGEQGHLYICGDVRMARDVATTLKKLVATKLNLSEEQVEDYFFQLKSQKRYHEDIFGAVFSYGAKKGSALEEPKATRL

[7] = target: T2, C-X-C chemokine receptor type 2 (Homo sapiens, UniProt P25025); assay type: cell membranes, Membrane; settings: cho-k1; note: in other assays of this panel Not Active means under 50% inhibition at 10 µM
T2 sequence (P25025 whole entry): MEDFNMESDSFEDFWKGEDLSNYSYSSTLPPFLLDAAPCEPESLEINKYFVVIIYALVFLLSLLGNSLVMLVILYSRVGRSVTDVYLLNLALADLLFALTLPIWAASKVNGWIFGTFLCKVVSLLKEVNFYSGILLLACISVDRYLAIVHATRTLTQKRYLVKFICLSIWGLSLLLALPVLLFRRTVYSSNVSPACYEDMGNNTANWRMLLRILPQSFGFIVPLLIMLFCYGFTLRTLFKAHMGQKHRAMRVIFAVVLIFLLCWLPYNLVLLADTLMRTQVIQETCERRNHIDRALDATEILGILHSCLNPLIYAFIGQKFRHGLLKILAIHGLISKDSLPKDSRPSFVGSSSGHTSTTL

Platelet-activating factor receptor, sequence (P25105 whole entry): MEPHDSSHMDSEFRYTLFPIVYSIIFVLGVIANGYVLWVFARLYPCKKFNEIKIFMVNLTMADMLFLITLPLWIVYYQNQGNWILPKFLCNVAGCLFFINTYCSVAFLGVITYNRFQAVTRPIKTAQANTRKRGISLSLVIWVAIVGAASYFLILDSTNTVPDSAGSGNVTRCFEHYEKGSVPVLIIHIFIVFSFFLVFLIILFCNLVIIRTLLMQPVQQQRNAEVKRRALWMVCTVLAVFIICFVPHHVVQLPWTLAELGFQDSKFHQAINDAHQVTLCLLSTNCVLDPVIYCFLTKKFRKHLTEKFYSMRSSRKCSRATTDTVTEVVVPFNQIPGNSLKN
Epidermal growth factor receptor, sequence (P00533 whole entry): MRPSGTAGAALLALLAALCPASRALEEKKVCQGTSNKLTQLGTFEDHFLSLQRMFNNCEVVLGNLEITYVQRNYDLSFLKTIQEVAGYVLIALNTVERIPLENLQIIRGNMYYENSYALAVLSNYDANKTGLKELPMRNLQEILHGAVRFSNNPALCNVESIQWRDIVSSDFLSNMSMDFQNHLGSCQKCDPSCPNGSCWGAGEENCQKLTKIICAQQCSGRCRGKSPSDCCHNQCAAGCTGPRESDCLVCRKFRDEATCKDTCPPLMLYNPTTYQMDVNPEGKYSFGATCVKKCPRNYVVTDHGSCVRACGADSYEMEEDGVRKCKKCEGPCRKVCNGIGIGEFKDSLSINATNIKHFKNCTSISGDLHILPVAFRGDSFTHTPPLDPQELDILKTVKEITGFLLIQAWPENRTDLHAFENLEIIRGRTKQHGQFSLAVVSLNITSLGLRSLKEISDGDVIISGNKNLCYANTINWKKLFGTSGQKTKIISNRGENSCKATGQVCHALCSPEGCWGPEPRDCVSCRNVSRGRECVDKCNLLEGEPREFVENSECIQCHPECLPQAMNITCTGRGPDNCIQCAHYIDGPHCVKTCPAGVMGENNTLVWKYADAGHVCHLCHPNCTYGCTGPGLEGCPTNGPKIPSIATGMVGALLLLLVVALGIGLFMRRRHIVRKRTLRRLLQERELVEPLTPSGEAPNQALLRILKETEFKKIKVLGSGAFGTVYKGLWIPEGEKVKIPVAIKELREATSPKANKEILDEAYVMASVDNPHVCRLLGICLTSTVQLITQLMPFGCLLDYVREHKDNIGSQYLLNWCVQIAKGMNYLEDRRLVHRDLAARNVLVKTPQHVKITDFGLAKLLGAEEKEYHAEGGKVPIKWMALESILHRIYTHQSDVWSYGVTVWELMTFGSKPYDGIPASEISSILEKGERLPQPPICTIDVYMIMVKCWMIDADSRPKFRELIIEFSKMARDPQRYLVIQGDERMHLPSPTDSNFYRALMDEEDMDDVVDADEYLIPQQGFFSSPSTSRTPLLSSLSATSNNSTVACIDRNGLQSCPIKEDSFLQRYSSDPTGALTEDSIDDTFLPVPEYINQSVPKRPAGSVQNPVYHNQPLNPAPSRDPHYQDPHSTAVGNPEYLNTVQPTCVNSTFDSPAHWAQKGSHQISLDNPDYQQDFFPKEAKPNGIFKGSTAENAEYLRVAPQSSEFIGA
Receptor tyrosine-protein kinase erbB-2, sequence (P04626 whole entry): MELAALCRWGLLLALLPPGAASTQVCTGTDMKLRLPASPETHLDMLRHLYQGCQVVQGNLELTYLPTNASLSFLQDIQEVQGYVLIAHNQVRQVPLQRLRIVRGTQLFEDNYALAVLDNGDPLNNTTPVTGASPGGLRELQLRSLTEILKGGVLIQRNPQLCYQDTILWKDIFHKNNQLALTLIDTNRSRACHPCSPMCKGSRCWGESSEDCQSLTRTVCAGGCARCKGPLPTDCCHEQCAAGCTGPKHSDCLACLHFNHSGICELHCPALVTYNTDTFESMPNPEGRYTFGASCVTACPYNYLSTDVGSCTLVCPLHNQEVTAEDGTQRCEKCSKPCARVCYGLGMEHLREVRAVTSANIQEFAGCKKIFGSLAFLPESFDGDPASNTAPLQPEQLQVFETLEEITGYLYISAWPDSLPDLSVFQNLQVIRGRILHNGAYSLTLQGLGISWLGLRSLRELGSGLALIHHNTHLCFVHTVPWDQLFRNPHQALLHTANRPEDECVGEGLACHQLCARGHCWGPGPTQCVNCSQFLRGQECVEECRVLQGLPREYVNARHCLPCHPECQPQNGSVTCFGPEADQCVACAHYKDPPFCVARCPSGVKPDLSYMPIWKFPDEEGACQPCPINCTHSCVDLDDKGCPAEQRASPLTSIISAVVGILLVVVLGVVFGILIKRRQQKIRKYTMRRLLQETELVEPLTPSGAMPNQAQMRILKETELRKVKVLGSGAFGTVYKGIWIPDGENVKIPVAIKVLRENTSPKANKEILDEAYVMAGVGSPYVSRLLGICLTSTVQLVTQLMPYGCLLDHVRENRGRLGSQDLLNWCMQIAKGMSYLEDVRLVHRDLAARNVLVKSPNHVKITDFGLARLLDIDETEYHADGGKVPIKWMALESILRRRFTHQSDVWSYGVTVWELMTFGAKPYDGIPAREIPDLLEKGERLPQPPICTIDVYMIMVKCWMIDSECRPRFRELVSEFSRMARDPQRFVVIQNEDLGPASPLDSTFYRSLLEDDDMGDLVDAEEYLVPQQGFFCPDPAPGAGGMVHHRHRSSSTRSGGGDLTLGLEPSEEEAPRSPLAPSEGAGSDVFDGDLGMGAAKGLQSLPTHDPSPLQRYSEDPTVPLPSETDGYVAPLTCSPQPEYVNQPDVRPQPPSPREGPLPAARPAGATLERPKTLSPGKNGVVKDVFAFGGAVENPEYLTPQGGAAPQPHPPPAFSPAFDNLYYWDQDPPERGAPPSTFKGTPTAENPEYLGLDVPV
Insulin receptor, sequence (P15127 27-759 limits assumed): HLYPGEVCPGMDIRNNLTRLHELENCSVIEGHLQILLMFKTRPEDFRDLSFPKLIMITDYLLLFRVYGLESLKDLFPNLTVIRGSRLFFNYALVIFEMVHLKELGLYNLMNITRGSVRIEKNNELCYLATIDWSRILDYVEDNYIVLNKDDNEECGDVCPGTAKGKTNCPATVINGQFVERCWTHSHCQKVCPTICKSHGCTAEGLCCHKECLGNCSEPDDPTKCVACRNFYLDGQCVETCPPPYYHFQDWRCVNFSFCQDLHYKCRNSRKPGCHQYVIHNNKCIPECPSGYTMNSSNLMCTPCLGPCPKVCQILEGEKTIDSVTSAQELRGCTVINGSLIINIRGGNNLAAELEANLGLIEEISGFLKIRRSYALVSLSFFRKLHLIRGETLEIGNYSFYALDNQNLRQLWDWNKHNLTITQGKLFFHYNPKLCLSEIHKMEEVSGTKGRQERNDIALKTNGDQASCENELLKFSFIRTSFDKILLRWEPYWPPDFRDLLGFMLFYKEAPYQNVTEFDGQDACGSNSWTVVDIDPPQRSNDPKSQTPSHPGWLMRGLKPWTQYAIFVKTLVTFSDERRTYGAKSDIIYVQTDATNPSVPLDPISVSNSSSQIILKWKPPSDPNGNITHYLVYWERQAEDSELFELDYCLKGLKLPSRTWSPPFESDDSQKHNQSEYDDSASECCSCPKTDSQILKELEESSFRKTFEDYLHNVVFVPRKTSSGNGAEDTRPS
Insulin receptor, sequence (P15127 764-1383 limits assumed): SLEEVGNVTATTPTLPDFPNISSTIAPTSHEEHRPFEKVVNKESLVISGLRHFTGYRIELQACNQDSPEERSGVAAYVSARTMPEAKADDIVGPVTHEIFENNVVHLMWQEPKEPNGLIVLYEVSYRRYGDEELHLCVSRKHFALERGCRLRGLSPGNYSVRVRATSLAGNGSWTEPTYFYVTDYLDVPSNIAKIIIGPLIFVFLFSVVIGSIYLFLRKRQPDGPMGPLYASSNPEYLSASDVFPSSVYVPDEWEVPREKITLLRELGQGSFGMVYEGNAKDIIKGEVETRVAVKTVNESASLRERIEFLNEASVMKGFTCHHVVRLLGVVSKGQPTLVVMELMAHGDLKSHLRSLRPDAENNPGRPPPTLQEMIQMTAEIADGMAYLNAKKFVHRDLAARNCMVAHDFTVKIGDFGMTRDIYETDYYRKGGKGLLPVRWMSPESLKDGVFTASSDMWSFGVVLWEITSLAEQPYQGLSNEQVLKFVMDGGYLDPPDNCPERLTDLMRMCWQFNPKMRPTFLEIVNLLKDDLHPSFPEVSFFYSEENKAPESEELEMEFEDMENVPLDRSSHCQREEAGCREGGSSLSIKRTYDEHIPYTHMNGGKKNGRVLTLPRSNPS

CN1C(=O)COc2c(C(=O)NC3CN4CCC3CC4)cc(Cl)cc21 (stereo not drawn) [AZASETRON]
Not Active: IC50 [1] | IC50 [2] | Ki [2] | IC50 [3] | IC50 [4] | IC50 [5] | IC50 [6] | IC50 [7]

C[C@H]1C[C@H]2[C@@H]3CCC4=CC(=O)C=C[C@]4(C)[C@@]3(Cl)[C@@H](O)C[C@]2(C)[C@@]1(O)C(=O)CO [BECLOMETHASONE]
Not Active: IC50 [1] | IC50 [2] | Ki [2] | IC50 [3] | IC50 [4] | IC50 [5] | IC50 [6] | IC50 [7]

O=C1CC2(CCCC2)CC(=O)N1CCCCN1CCN(c2ncccn2)CC1 [BUSPIRONE]
Not Active: IC50 [1] | IC50 [2] | Ki [2] | IC50 [3] | IC50 [4] | IC50 [5] | IC50 [6] | IC50 [7]

C[C@@]12C(=O)OC(=O)[C@]1(C)[C@H]1CC[C@@H]2O1 [CANTHARIDIN]
Not Active: IC50 [1] | IC50 [2] | Ki [2] | IC50 [3] | IC50 [4] | IC50 [5] | IC50 [6] | IC50 [7]

C[N+](C)(C)CCO.[Cl-] [CHOLINE CHLORIDE]
Not Active: IC50 [1] | IC50 [2] | Ki [2] | IC50 [3] | IC50 [4] | IC50 [5] | IC50 [6] | IC50 [7]

C/C=C/C[C@@H](C)[C@@H](O)[C@H]1C(=O)N[C@@H](CC)C(=O)N(C)CC(=O)N(C)[C@@H](CC(C)C)C(=O)N[C@@H](C(C)C)C(=O)N(C)[C@@H](CC(C)C)C(=O)N[C@@H](C)C(=O)N[C@H](C)C(=O)N(C)[C@@H](CC(C)C)C(=O)N(C)[C@@H](CC(C)C)C(=O)N(C)[C@@H](C(C)C)C(=O)N1C [CYCLOSPORINE]
Not Active: IC50 [1] | IC50 [2] | Ki [2] | IC50 [3] | IC50 [4] | IC50 [5] | IC50 [6] | IC50 [7]

CC(=O)Nc1c(I)c(NC(C)=O)c(I)c(C(=O)O)c1I [DIATRIZOIC ACID]
Not Active: IC50 [1] | IC50 [2] | Ki [2] | IC50 [3] | IC50 [4] | IC50 [5] | IC50 [6] | IC50 [7]

C[C@]12CC[C@@H]3c4ccc(O)cc4CC[C@H]3[C@@H]1CC[C@@H]2O [ESTRADIOL]
Not Active: IC50 [1] | IC50 [2] | Ki [2] | IC50 [3] | IC50 [4] | IC50 [5] | IC50 [6] | IC50 [7]

CC1(C)O[C@@H]2C[C@H]3[C@@H]4C[C@H](F)C5=CC(=O)C=C[C@]5(C)[C@@]4(F)[C@@H](O)C[C@]3(C)[C@]2(C(=O)CO)O1 [FLUOCINOLONE ACETONIDE]
Not Active: IC50 [1] | IC50 [2] | Ki [2] | IC50 [3] | IC50 [4] | IC50 [5] | IC50 [6] | IC50 [7]

Cc1ccc(S(=O)(=O)NC(=O)NN2CC3CCCC3C2)cc1 (stereo not drawn) [GLICLAZIDE]
Not Active: IC50 [1] | IC50 [2] | Ki [2] | IC50 [3] | IC50 [4] | IC50 [5] | IC50 [6] | IC50 [7]

COc1ccc2c(c1)c(CC(=O)O)c(C)n2C(=O)c1ccc(Cl)cc1 [INDOMETHACIN]
Not Active: IC50 [1] | IC50 [2] | Ki [2] | IC50 [3] | IC50 [4] | IC50 [5] | IC50 [6] | IC50 [7]
